# Test results from US9732085B2, “Pyridinone and pyrimidinone derivatives as factor Xia” (ONO PHARMACEUTICAL CO., LTD., priority 2011, dated 2017).
# pIC50: −log10 of the molar value. Structures can show the parent of a compound that is named as a salt. Where two headings read alike, the source gives them in different places.
# Molecular target: Human Factor XIa (Homo sapiens (Human), UniProt P03951)
# Test: Factor XIa enzyme activity (chromogenic substrate S-2366)
# Type: biochemical
# Details: read-out: In vitro FXIa inhibitory activity IC50
# Method: Inhibitory activities of compounds of the present invention against factor XIa, Xa, XIIa, IXa, VIIa, plasma kallikrein or thrombin were evaluated using appropriate purified proteases and synthetic substrates. The rate of hydrolysis of the chromogenic substrate by the relevant protease was continuously measured at 405 nm.
# Inhibitory activity against each enzyme was calculated as % inhibition using the equation described below. % Inhibition=[[(rate without compound)−(rate with compound)](rate without compound)]×100%. Each half maximal inhibitory concentration (IC50) value was determined by plotting the concentration of compound of the invention against the % inhibition. (1-1) Factor XIa Enzyme Activity
# Human Factor XIa (Haematologic Technologies Inc.) activity was measured at an enzyme concentration of 0.1 U/mL in 150 mM NaCl, 5 mM KCl, 1 mg/mL PEG6000, 50 mM HEPES-NaOH (pH7.4) with 300 μM S-2366 (pyroGlu-Pro-Arg-pNA, Chromogenix).
# [1] = human Factor XIa 0.1 U/mL, 300 μM S-2366, pH7.4
# Sequence of Human Factor XIa (P03951 388-625): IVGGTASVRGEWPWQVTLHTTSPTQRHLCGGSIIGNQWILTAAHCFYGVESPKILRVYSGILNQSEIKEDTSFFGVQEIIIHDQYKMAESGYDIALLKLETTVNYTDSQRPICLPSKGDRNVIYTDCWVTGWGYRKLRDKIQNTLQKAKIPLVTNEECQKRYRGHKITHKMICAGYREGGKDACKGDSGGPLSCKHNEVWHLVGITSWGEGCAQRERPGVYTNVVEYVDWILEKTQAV
# Sequence of Human Factor XIa (P03951 19-387 partner): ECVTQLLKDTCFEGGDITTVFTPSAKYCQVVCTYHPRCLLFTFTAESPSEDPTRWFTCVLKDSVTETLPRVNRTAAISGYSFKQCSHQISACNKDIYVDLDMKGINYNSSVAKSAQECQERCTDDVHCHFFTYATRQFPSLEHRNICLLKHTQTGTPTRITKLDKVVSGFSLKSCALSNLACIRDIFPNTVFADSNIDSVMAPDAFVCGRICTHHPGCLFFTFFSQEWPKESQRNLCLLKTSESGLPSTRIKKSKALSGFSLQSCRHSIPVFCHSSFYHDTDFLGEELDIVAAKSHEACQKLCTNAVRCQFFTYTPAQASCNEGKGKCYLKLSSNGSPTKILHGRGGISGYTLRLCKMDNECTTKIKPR
pIC50 [1],"pIC50 (Table 2, comparison with comparative compounds)",Compound
8.34,,"COCCOC(=O)Nc1ccc(-c2cnc(C3CCc4cc(-c5cc(Cl)ccc5-n5cnnn5)cc(=O)n43)[nH]2)cc1 (centres unmarked) [129(2), 2-methoxyethyl[4-(2-{7-[5-chloro-2-(1H-tetrazol-1-yl)phenyl]-5-oxo-1,2,3,5-tetrahydro-3-indolizinyl}-1H-imidazol-5-yl)phenyl]carbamate]"
7.85,,"COC(=O)Nc1ccc(-c2cnc(C(C)n3ccc(-c4cc(Cl)ccc4-n4cnnn4)cc3=O)[nH]2)cc1 (centres unmarked) [Example 61, methyl{4-[2-(1-{4-[5-chloro-2-(1H-tetrazol-1-yl)phenyl]-2-oxo-1(2H)-pyridinyl}ethyl)-1H-imidazol-5-yl]phenyl}carbamate]"
8.82,,"Nc1ccc(-c2[nH]c([C@@H]3CCc4cc(-c5cc(Cl)ccc5-n5cnnn5)cc(=O)n43)nc2Cl)cn1 [Example 198, (3S)-3-[5-(6-amino-3-pyridinyl)-4-chloro-1H-imidazol-2-yl]-7-[5-chloro-2-(1H-tetrazol-1-yl)phenyl]-2,3-dihydro-5(1H)-indolizinone]"
8.55,,"Nc1ccc(-c2cnc([C@@H]3CCc4cc(-c5cc(Cl)ccc5-n5cnnn5)cc(=O)n43)[nH]2)c(Cl)n1 [Example 210, (3S)-3-[5-(6-amino-2-chloro-3-pyridinyl)-1H-imidazol-2-yl]-7-[5-chloro-2-(1H-tetrazol-1-yl)phenyl]-2,3-dihydro-5(1H)-indolizinone]"
8.32,,"COC(=O)Nc1ccc(-c2nc(Cl)c(C3CCc4cc(-c5cc(Cl)ccc5-n5cnnn5)cc(=O)n43)[nH]2)cc1 (centres unmarked) [Example 241, methyl[4-(4-chloro-5-{7-[5-chloro-2-(1H-tetrazol-1-yl)phenyl]-5-oxo-1,2,3,5-tetrahydro-3-indolizinyl}-1H-imidazol-2-yl)phenyl]carbamate]"
7.96,,"COC(=O)Nc1ccc(-c2cnc([C@@H]3CSc4cc(-c5cc(Cl)ccc5-n5cnnn5)cc(=O)n43)[nH]2)cc1 [Example 270, methyl[4-(2-{(3R)-7-[5-chloro-2-(1H-tetrazol-1-yl)phenyl]-5-oxo-2,3-dihydro-5H-[1,3]thiazolo[3,2-a]pyridin-3-yl}-1H-imidazol-5-yl)phenyl]carbamate]"
8.24,,"COC(=O)Nc1ccc(-c2cnc(C(Cc3cccnc3)n3ccc(-c4cc(Cl)ccc4-n4cnnn4)cc3=O)[nH]2)cc1 (centres unmarked) [Example 278, methyl(4-{2-[1-{4-[5-chloro-2-(1H-tetrazol-1-yl)phenyl]-2-oxo-1(2H)-pyridinyl}-2-(3-pyridinyl)ethyl]-1H-imidazol-5-yl}phenyl)carbamate]"
8.08,,"COC(=O)Nc1ccc(-c2cnc([C@@H]3CCc4cc(-c5cc(C)ccc5-n5cnnn5)cc(=O)n43)[nH]2)cc1 [Example 309, methyl[4-(2-{(3S)-7-[5-methyl-2-(1H-tetrazol-1-yl)phenyl]-5-oxo-1,2,3,5-tetrahydro-3-indolizinyl}-1H-imidazol-5-yl)phenyl]carbamate]"
8.85,,"O=C(O)c1cc(-c2cnc([C@@H]3CCc4cc(-c5cc(Cl)ccc5-n5cnnn5)cc(=O)n43)[nH]2)cs1 [Example 363, 4-(2-{(3S)-7-[5-chloro-2-(1H-tetrazol-1-yl)phenyl]-5-oxo-1,2,3,5-tetrahydro-3-indolizinyl}-1H-imidazol-5-yl)-2-thiophenecarboxylic acid hydrochloride]"
8.96,,"O=C(O)c1cc(-c2cnc([C@@H]3CCc4c(Cl)c(-c5cc(Cl)ccc5-n5cnnn5)cc(=O)n43)[nH]2)cs1 [Example 391, 4-(2-{(3S)-8-chloro-7-[5-chloro-2-(1H-tetrazol-1-yl)phenyl]-5-oxo-1,2,3,5-tetrahydro-3-indolizinyl}-1H-imidazol-5-yl)-2-thiophenecarboxylic acid trifluoroacetate]"
8.68,,"O=C(O)c1cc(-c2cnc([C@@H]3CCc4nc(-c5cc(Cl)ccc5-n5cnnn5)cc(=O)n43)[nH]2)cs1 [Example 392, 4-(2-{(6S)-2-[5-chloro-2-(1H-tetrazol-1-yl)phenyl]-4-oxo-4,6,7,8-tetrahydropyrrolo[1,2-a]pyrimidin-6-yl}-1H-imidazol-5-yl)-2-thiophenecarboxylic acid hydrochloride]"
8.96,,"O=C(O)c1ccc(-c2[nH]c([C@@H]3CCc4cc(-c5cc(Cl)ccc5-n5cnnn5)cc(=O)n43)nc2F)s1 [Example 399, 5-(2-{(3S)-7-[5-chloro-2-(1H-tetrazol-1-yl)phenyl]-5-oxo-1,2,3,5-tetrahydro-3-indolizinyl}-4-fluoro-1H-imidazol-5-yl)-2-thiophenecarboxylic acid trifluoroacetate]"
7.89,,"Cc1cc(-c2cc(Cl)ccc2-n2cnnn2)cc(=O)n1Cc1ncc(-c2csc(C(=O)O)c2)[nH]1 [Example 400, 4-[2-({4-[5-chloro-2-(1H-tetrazol-1-yl)phenyl]-6-methyl-2-oxo-1(2H)-pyridinyl}methyl)-1H-imidazol-5-yl]-2-thiophenecarboxylic acid hydrochloride]"
8.80,,"O=C(O)c1scc(-c2cnc([C@@H]3CCc4cc(-c5cc(Cl)ccc5-n5cnnn5)cc(=O)n43)[nH]2)c1F [Example 834, 4-(2-{(3S)-7-[5-chloro-2-(1H-tetrazol-1-yl)phenyl]-5-oxo-1,2,3,5-tetrahydro-3-indolizinyl}-1H-imidazol-5-yl)-3-fluoro-2-thiophenecarboxylic acid]"

# Further lines, the compound ahead of its results:
Compound,pIC50 [1],"pIC50 (Table 2, comparison with comparative compounds)"
"COc1cc(Nc2ccc3n(c2=O)C(c2ccc(F)cc2)CCC3)ccc1-n1cnc(C)c1 (centres unmarked) [Comp. Ex 4, reference compound]",,< 5.00
"CCC(c1nc(-c2ccc(NC(=O)OC)cc2)c(Cl)[nH]1)n1ccc(-c2cc(Cl)ccc2-n2cnnn2)cc1=O (centres unmarked) [Example 60, methyl{4-[5-chloro-2-(1-{4-[5-chloro-2-(1H-tetrazol-1-yl)phenyl]-2-oxo-1(2H)-pyridinyl}propyl)-1H-imidazol-4-yl]phenyl}carbamate]",8.14,
"O=C1CCc2cc(-c3c[nH]c(C4CCc5cc(-c6cc(Cl)ccc6-n6cnnn6)cc(=O)n54)n3)ccc2N1 (centres unmarked) [Example 86, 6-(2-{7-[5-chloro-2-(1H-tetrazol-1-yl)phenyl]-5-oxo-1,2,3,5-tetrahydro-3-indolizinyl}-1H-imidazol-4-yl)-3,4-dihydro-2(1H)-quinolinone]",8.41,
"COC(=O)Nc1ccc(-c2cnc(C3CCc4cc(-c5cc(Cl)ccc5-n5cnnn5)cc(=O)n43)[nH]2)s1 (centres unmarked) [Example 181, methyl[5-(2-{7-[5-chloro-2-(1H-tetrazol-1-yl)phenyl]-5-oxo-1,2,3,5-tetrahydro-3-indolizinyl}-1H-imidazol-5-yl)-2-thienyl]carbamate]",7.33,
"Nc1ccc(-c2cnc([C@@H]3CCc4cc(-c5cc(Cl)ccc5-n5cnnn5)cc(=O)n43)[nH]2)c(F)n1 [Example 216, (3S)-3-[5-(6-amino-2-fluoro-3-pyridinyl)-1H-imidazol-2-yl]-7-[5-chloro-2-(1H-tetrazol-1-yl)phenyl]-2,3-dihydro-5(1H)-indolizinone]",8.42,
"COC(=O)Nc1ccc(-c2[nH]c([C@@H]3CCc4cc(-c5cc(Cl)ccc5-n5cnnn5)cc(=O)n43)nc2Cl)nc1 [Example 230, methyl[6-(4-chloro-2-{(3S)-7-[5-chloro-2-(1H-tetrazol-1-yl)phenyl]-5-oxo-1,2,3,5-tetrahydro-3-indolizinyl}-1H-imidazol-5-yl)-3-pyridinyl]carbamate]",7.96,
"COC(=O)Nc1ccc(-c2nnc(C3CCc4cc(-c5cc(Cl)ccc5-n5cnnn5)cc(=O)n43)[nH]2)cc1 (centres unmarked) [Example 245, methyl[4-(5-{7-[5-chloro-2-(1H-tetrazol-1-yl)phenyl]-5-oxo-1,2,3,5-tetrahydro-3-indolizinyl}-4H-1,2,4-triazol-3-yl)phenyl]carbamate]",7.77,
"COCCC(c1nc(Cl)c(-c2ccc(NC(=O)OC)cc2)[nH]1)n1ccc(-c2cc(Cl)ccc2-n2cnnn2)cc1=O (centres unmarked) [Example 264, methyl{4-[4-chloro-2-(1-{4-[5-chloro-2-(1H-tetrazol-1-yl)phenyl]-2-oxo-1(2H)-pyridinyl]-3-methoxypropyl)-1H-imidazol-5-yl}phenyl}carbamate]",8.21,
"COC(=O)Nc1ccc(-c2cnc([C@@H]3CCc4cc(-c5cc(Cl)ccc5-n5cc(C#N)nn5)cc(=O)n43)[nH]2)cc1 [Example 290, methyl[4-(2-{(3S)-7-[5-chloro-2-(4-cyano-1H-1,2,3-triazol-1-yl)phenyl]-5-oxo-1,2,3,5-tetrahydro-3-indolizinyl}-1H-imidazol-5-yl)phenyl]carbamate]",8.60,
"O=C(O)c1ccc(-c2cnc([C@@H]3CCc4cc(-c5cc(Cl)ccc5-n5cnnn5)cc(=O)n43)[nH]2)s1 [Example 347, 5-(2-{(3S)-7-[5-chloro-2-(1H-tetrazol-1-yl)phenyl]-5-oxo-1,2,3,5-tetrahydro-3-indolizinyl}-1H-imidazol-5-yl)-2-thiophenecarboxylic acid]",8.38,
"O=C(O)c1ccc(-c2cnc([C@@H]3CCc4c(Cl)c(-c5cc(Cl)ccc5-n5cnnn5)cc(=O)n43)[nH]2)s1 [Example 387, 5-(2-{(3S)-8-chloro-7-[5-chloro-2-(1H-tetrazol-1-yl)phenyl]-5-oxo-1,2,3,5-tetrahydro-3-indolizinyl}-1H-imidazol-5-yl)-2-thiophenecarboxylic acid hydrochloride]",8.80,
"O=C(O)c1cc(-c2nc(F)c(C3CCc4cc(-c5cc(Cl)ccc5-n5cnnn5)cc(=O)n43)[nH]2)cs1 (centres unmarked) [Example 848, 4-(5-{7-[5-chloro-2-(1H-tetrazol-1-yl)phenyl]-5-oxo-1,2,3,5-tetrahydro-3-indolizinyl}-4-fluoro-1H-imidazol-2-yl)-2-thiophenecarboxylic acid]",8.77,
